Measured values from PubChem BioAssay AID2060607 (Molecular Pharmacology Branch, DTP, NCI, 2025).
pIC50: −log10 of the molar value.

Test system: 876862-298-R-J1-PDC complex spheroids, viability % test/control
Assay: Anticancer human tumor 876862-298-R-J1-PDC patient-derived endometrial carcinoma cell line growth inhibition [CLK]
Conditions: for pIC50: curve of first compound; for viability, T/C: stronger effect = lower value
Procedure, shortened: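 Multi-cell-type spheroids combined patient-derived tumor cells with HUVEC endothelial cells and human mesenchymal stem cells. Paired agents were dosed in half-log steps down from about clinical Cmax, or from 10 microM where Cmax was unknown.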

[1] = second compound 0.0316 µM, first compound 0.0316 µM
[2] = second compound 0.0316 µM, first compound 0.1 µM
[3] = second compound 0.0316 µM, first compound 0.316 µM
[4] = second compound 0.0316 µM, first compound 1 µM
[5] = second compound 0.1 µM, first compound 0.0316 µM
[6] = second compound 0.1 µM, first compound 0.1 µM
[7] = second compound 0.1 µM, first compound 0.316 µM
[8] = second compound 0.1 µM, first compound 1 µM
[9] = second compound 0.316 µM, first compound 0.0316 µM
[10] = second compound 0.316 µM, first compound 0.1 µM
[11] = second compound 0.316 µM, first compound 0.316 µM
[12] = second compound 0.316 µM, first compound 1 µM
[13] = second compound 1 µM, first compound 0.0316 µM
[14] = second compound 1 µM, first compound 0.1 µM
[15] = second compound 1 µM, first compound 0.316 µM
[16] = second compound 1 µM, first compound 1 µM
[17] = second compound 3.16 µM, first compound 0.0316 µM
[18] = second compound 3.16 µM, first compound 0.1 µM
[19] = second compound 3.16 µM, first compound 0.316 µM
[20] = second compound 3.16 µM, first compound 1 µM
[21] = second compound 10 µM, first compound 0.0316 µM
[22] = second compound 10 µM, first compound 0.1 µM
[23] = second compound 10 µM, first compound 0.316 µM
[24] = second compound 10 µM, first compound 1 µM
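Also: spheroids exposed to drugs for 7 days before readout.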
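For viability, T/C in this document: 100% = DMSO vehicle control wells.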

Compound `CC(=O)O[C@H]1C(=O)[C@@]2(C)[C@H]([C@H](OC(=O)c3ccccc3)[C@]3(O)C[C@H](OC(=O)[C@H](O)[C@@H](NC(=O)c4ccccc4)c4ccccc4)C(C)=C1C3(C)C)[C@]1(OC(C)=O)CO[C@@H]1C[C@@H]2O` + CN1CCN(c2cc(C(=O)Nc3cc4cc(-c5cnn(C)c5)ccc4cn3)ccn2)CC1 has a pIC50 (second compound 0.0316 µM) greater than 7.50, a pIC50 (second compound 0.1 µM) greater than 7.50 and a pIC50 (second compound 0.316 µM) greater than 7.50. For the same compound, the pIC50 (second compound 1 µM) was greater than 7.50, the pIC50 (second compound 3.16 µM) was greater than 7.50 and the pIC50 (second compound 10 µM) was greater than 7.50. The viability, T/C [1] was 32.4%, the viability, T/C [2] was 28.7% and the viability, T/C [3] was 30.5%. It also gave a viability, T/C [4] of 28.1%, a viability, T/C (second compound 0.0316 µM, first compound 3.16 µM) of 30.7% and a viability, T/C (second compound 0.0316 µM, first compound 10 µM) of 34.8%. The viability, T/C [5] was 28.6%, the viability, T/C [6] was 24.5% and the viability, T/C [7] was 22.7%. For the same compound, the viability, T/C [8] was 21.3%, the viability, T/C (second compound 0.1 µM, first compound 3.16 µM) was 23.5% and the viability, T/C (second compound 0.1 µM, first compound 10 µM) was 24.1%. The viability, T/C [9] was 1.74%, the viability, T/C [10] was 1.82% and the viability, T/C [11] was 2.01%. It also gave a viability, T/C [12] of 2.21%, a viability, T/C (second compound 0.316 µM, first compound 3.16 µM) of 2.68% and a viability, T/C (second compound 0.316 µM, first compound 10 µM) of 4.53%. It also gave a viability, T/C [13] of 0.82%, a viability, T/C [14] of 0.89% and a viability, T/C [15] of 0.6%. For the same compound, the viability, T/C [16] was 0.59%, the viability, T/C (second compound 1 µM, first compound 3.16 µM) was 0.84% and the viability, T/C (second compound 1 µM, first compound 10 µM) was 0.56%. The viability, T/C [17] was 0.93%, the viability, T/C [18] was 0.84% and the viability, T/C [19] was 0.96%. The viability, T/C [20] was 0.79%, the viability, T/C (second compound 3.16 µM, first compound 3.16 µM) was 0.78% and the viability, T/C (second compound 3.16 µM, first compound 10 µM) was 0.55%. For the same compound, the viability, T/C [21] was 0.6%, the viability, T/C [22] was 0.59% and the viability, T/C [23] was 0.57%. It also gave a viability, T/C [24] of 0.58%, a viability, T/C (second compound 10 µM, first compound 3.16 µM) of 0.66% and a viability, T/C (second compound 10 µM, first compound 10 µM) of 0.58%.

Compound `CCc1c2c(nc3ccc(O)cc13)-c1cc3c(c(=O)n1C2)COC(=O)[C@]3(O)CC` + CN1CCN(c2cc(C(=O)Nc3cc4cc(-c5cnn(C)c5)ccc4cn3)ccn2)CC1 has a pIC50 (second compound 0.0316 µM) greater than 8.50, a pIC50 (second compound 0.1 µM) greater than 8.50 and a pIC50 (second compound 0.316 µM) greater than 8.50. It also gave a pIC50 (second compound 1 µM) greater than 8.50, a pIC50 (second compound 3.16 µM) greater than 8.50 and a pIC50 (second compound 10 µM) greater than 8.50. The viability, T/C (second compound 0.0316 µM, first compound 0.00316 µM) was 25.1%, the viability, T/C (second compound 0.0316 µM, first compound 0.01 µM) was 8.53% and the viability, T/C [1] was 7.87%. The viability, T/C [2] was 4.18%, the viability, T/C [3] was 3.57% and the viability, T/C [4] was 2.49%. The viability, T/C (second compound 0.1 µM, first compound 0.00316 µM) was 14.1%, the viability, T/C (second compound 0.1 µM, first compound 0.01 µM) was 7.89% and the viability, T/C [5] was 5.72%. It also gave a viability, T/C [6] of 4.71%, a viability, T/C [7] of 3.63% and a viability, T/C [8] of 2.79%. The viability, T/C (second compound 0.316 µM, first compound 0.00316 µM) was 1.72%, the viability, T/C (second compound 0.316 µM, first compound 0.01 µM) was 1.95% and the viability, T/C [9] was 1.32%. The viability, T/C [10] was 0.72%, the viability, T/C [11] was 0.73% and the viability, T/C [12] was 0.47%. The viability, T/C (second compound 1 µM, first compound 0.00316 µM) was 0.79%, the viability, T/C (second compound 1 µM, first compound 0.01 µM) was 0.82% and the viability, T/C [13] was 1.38%. The viability, T/C [14] was 1.51%, the viability, T/C [15] was 0.71% and the viability, T/C [16] was 0.54%. It also gave a viability, T/C (second compound 3.16 µM, first compound 0.00316 µM) of 0.79%, a viability, T/C (second compound 3.16 µM, first compound 0.01 µM) of 0.71% and a viability, T/C [17] of 0.85%. It also gave a viability, T/C [18] of 0.75%, a viability, T/C [19] of 0.6% and a viability, T/C [20] of 0.43%. It also gave a viability, T/C (second compound 10 µM, first compound 0.00316 µM) of 0.44%, a viability, T/C (second compound 10 µM, first compound 0.01 µM) of 0.53% and a viability, T/C [21] of 0.53%. It also gave a viability, T/C [22] of 0.4%, a viability, T/C [23] of 0.55% and a viability, T/C [24] of 0.49%.
